Test results from PubChem BioAssay AID1584 (NINDS Approved Drug Screening Program, 2009).
Results filed as inconclusive are left out.

target: Huntingtin (Homo sapiens) (UniProt P42858); experiment: mutant huntingtin aggregation blockers – QA1, dose response (AID 1584); conditions: in vitro mutant huntingtin aggregation assay
Sequence (P42858 whole entry, looked up): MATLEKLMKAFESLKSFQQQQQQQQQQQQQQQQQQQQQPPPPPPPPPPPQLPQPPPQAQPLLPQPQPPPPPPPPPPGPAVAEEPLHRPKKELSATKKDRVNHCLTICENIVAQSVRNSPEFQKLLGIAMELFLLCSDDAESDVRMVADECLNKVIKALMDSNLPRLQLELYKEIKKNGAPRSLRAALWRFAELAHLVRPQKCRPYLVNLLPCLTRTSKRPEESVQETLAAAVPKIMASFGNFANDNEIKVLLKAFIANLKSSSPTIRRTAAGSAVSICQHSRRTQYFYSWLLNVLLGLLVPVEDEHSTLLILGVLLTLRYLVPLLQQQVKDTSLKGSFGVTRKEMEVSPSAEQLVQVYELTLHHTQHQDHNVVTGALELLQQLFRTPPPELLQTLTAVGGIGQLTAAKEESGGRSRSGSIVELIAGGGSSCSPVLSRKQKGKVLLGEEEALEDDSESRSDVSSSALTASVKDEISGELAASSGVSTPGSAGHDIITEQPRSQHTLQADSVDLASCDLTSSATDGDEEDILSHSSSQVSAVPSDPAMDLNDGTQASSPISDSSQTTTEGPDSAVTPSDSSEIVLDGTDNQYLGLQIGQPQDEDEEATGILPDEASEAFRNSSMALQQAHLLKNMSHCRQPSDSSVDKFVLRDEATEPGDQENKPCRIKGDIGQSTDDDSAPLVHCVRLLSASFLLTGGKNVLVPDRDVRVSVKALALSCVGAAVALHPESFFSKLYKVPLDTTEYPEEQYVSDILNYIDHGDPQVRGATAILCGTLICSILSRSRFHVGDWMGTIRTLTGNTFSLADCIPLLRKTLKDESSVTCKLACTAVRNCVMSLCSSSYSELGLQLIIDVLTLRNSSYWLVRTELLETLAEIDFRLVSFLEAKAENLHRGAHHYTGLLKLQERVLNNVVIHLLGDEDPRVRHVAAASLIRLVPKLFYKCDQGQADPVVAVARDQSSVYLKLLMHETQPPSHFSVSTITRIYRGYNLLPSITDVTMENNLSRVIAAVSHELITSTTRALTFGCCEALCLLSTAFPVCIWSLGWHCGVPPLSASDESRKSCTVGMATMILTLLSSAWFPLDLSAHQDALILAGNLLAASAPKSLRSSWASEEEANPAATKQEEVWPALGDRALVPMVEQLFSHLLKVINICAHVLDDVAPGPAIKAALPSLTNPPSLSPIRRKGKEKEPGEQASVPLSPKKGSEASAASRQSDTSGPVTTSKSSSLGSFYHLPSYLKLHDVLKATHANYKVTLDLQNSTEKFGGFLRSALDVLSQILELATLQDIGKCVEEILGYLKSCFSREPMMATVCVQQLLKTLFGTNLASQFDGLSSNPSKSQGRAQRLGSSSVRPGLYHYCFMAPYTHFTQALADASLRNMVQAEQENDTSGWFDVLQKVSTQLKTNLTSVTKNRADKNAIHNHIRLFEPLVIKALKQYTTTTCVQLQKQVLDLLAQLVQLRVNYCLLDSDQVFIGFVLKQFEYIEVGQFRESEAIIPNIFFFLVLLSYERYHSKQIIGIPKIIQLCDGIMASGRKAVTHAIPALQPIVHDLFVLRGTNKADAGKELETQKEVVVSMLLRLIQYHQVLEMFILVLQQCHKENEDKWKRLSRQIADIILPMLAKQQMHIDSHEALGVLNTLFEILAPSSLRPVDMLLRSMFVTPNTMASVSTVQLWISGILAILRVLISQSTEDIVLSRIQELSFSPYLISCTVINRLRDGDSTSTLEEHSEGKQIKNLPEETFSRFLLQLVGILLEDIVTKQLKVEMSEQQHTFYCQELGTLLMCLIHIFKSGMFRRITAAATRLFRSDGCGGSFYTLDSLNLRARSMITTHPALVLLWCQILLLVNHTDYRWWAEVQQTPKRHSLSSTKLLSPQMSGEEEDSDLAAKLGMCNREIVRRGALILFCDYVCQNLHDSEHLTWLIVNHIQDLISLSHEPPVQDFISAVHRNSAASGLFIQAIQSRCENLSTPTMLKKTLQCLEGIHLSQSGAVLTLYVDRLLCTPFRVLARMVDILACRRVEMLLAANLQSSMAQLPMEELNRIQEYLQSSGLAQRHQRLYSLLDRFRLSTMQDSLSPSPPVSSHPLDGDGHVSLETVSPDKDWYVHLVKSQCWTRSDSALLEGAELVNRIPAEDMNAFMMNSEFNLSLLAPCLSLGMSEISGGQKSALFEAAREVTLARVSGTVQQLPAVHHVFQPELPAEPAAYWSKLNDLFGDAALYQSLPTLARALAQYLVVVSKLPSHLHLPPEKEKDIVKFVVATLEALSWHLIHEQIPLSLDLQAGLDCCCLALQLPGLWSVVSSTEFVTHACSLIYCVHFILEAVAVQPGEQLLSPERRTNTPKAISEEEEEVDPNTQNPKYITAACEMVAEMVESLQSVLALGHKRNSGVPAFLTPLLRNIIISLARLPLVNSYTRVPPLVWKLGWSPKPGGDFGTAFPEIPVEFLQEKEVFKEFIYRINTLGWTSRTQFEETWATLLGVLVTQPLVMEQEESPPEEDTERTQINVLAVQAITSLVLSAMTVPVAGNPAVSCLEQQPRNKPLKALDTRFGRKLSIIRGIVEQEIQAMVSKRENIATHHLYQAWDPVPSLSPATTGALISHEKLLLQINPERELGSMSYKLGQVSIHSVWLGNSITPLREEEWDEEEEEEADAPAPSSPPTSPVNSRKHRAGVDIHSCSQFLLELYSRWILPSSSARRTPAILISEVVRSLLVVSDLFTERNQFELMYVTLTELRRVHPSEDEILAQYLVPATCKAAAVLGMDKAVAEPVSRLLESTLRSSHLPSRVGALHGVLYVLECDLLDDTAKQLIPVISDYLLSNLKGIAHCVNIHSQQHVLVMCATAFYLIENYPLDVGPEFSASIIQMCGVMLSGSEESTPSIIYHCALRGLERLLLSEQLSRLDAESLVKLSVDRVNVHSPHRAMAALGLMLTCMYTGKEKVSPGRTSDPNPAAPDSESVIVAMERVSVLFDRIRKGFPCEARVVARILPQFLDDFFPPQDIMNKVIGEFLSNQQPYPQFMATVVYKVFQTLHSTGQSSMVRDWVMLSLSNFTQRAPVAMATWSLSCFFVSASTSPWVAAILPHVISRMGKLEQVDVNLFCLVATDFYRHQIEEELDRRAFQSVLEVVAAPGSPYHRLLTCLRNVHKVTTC

| SMILES | EC50 [µM] |
| --- | --- |
| Cc1cc(/C=C/c2ccc3cc(N(C)C)ccc3[n+]2C)c(C)n1-c1ccccc1 | 21.7 |
| O=c1c(O)c(-c2ccc(O)cc2O)oc2cc(O)cc(O)c12 | 17 |
| C[n+]1cc2c3c(ccc2c2ccc4cc5c(cc4c21)OCO5)OCO3 | 5.7 |
| Cc1cc2c(C(C)C)c(O)c(O)c(C=O)c2c(O)c1-c1c(C)cc2c(C(C)C)c(O)c(O)c(C=O)c2c1O | 0.65 |
| O=C1c2c(O)cccc2Cc2cccc(O)c21 | 10.5 |
| C=C1c2c(Cl)ccc(O)c2C(O)=C2C(=O)[C@]3(O)C(O)=C(C(N)=O)C(=O)[C@@H](N(C)C)[C@@H]3[C@@H](O)[C@H]12 | 14.8 |
| O=C1C=CC(=O)c2c(O)cccc21 | 2.67 |
| CC(C)=CCCC1(C)C=Cc2c(O)c3c(c(CC=C(C)C)c2O1)OC12C(=CC4CC1C(C)(C)OC2(C/C=C(/C)C(=O)O)C4=O)C3=O (stereo not given) | 0.87 |
| C=Cc1c(C)c2cc3[nH]c(cc4nc(cc5nc(cc1[nH]2)C(C)=C5CCC(=O)O)C(CCC(=O)O)=C4C)c(C)c3C=C | 19.7 |
| C[C@@]1(C(=O)O)CC[C@]2(C)CC[C@]3(C)C4=CC=C5C=C(O)C(=O)C=C5[C@]4(C)CC[C@@]3(C)[C@@H]2C1 | 3.55 |
